Test results: patent US11696913B2, “Prolonged ectoparasite-controlling agent for animal” (MITSUI CHEMICALS AGRO, INC., priority 2017, dated 2023)

Key:
[1] = tested on: Ctenocephalides felis; test: In vitro contact test with fleas; conditions: read-out: insecticidal activity; for pest or weed control at 0.2 µg/cm2, 0.2 µg/cm2: dose 0.2 μg/cm^2, dead or moribund fleas after 48 h; for pest or weed control at 1 µg/cm2, 1 µg/cm2: dose 1 μg/cm^2, dead or moribund fleas after 48 h; for pest or weed control at 0.04 µg/cm2, 0.04 µg/cm2: dose 0.04 μg/cm^2, dead or moribund fleas after 48 h
Description: In Vitro Contact Tests with Fleas
In vitro contact tests with fleas were conducted with adult male and female cat fleas (Ctenocephalides felis).
To coat the test tubes, the test substance was dissolved and diluted in acetone p.a. to the desired concentration. The solution was then homogeneously applied to the inner wall and base of a glass tube by turning and rocking on an orbital shaker until complete evaporation of the solvent. For example, with a 900 ppm solution of test substance, an area-based dose of 5 μg/cm^2 was achieved.
Upon complete evaporation of the solvent, 5-10 adult cat fleas (Ctenocephalides felis) were added to each coated tube, which was then sealed with a perforated plastic lid and incubated in a horizontal position at room temperature and ambient humidity. After 48 h, insecticidal activity against fleas was determined. For this, fleas were collected to the base of the tube by knocking the tube, and the tube was allowed to stand upright. Fleas which remained motionless at the base or moved in an uncoordinated manner were considered dead or moribund, respectively.
A substance was judged to have good insecticidal activity against Ctenocephalides felis when at least 80% of the fleas were found dead or moribund at a dose of the substance of μg/cm^2. 100% insecticidal activity means that all the fleas were found dead or moribund. 0% insecticidal activity means that no fleas were found dead or moribund.

[2] = tested on: Amblyomma americanum; test: In vitro contact test with hard ticks (Amblyomma americanum nymphs); conditions: read-out: acaricidal activity; for pest or weed control at 0.2 µg/cm2, 0.2 µg/cm2: dose 0.2 μg/cm^2, 48 h; for pest or weed control at 1 µg/cm2, 1 µg/cm2: dose 1 μg/cm^2, 48 h
Description: (§1) In Vitro Contact Tests with Adult Hard Ticks
(§2) In vitro contact tests with ticks were conducted with adult males and females of Rhipicephalus sanguineus, Ixodes ricinus, or Dermacentor variabilis, or nymphs of Amblyomma americanum.
(§3) For the coating of the test vials, the test substance was dissolved and diluted in acetone p.a. to the desired concentration. The solution was then homogeneously applied to the inner wall and base of a glass vial by turning and rocking on an orbital shaker until complete evaporation of the solvent. For example, with a 900 ppm solution of test substance, an area-based dose of 5 μg/cm^2 was achieved.
(§4) After the solvent was completely evaporated, 5-10 adult ticks were put in each coated test vial, which was then sealed with a perforated plastic lid and incubated in a horizontal position in the dark at room temperature and ambient humidity (Rhipicephalus sanguineus) or in a climate-controlled cabinet (Ixodes ricinus, Dermacentor variabilis, Amblyomma americanum [21° C., 85% rel. hum.]). Acaricidal activity against the respective tick species was determined after 48 h. For this, ticks were collected to the base of the test vial by gentle knocking, and test vials were then incubated on a hotplate at 45-50° C. for no longer than 5 min. Ticks which remained motionless on the base of the test vial or moved uncoordinated without deliberately climbing up to avoid the heat were considered dead or moribund, respectively.
(§5) A substance was judged to have good acaricidal activity against the respective tick species when at least 80% of ticks were found dead or moribund at a dose of the substance of g/cm^2. An acaricidal activity of 100% means all ticks were dead or moribund. An acaricidal activity of 0% means none of the ticks was found dead or moribund.

[3] = tested on: Rhipicephalus sanguineus; test: In vitro contact test with adult hard ticks (Rhipicephalus sanguineus); conditions: read-out: acaricidal activity; for pest or weed control at 0.2 µg/cm2, 0.2 µg/cm2: dose 0.2 μg/cm^2, 48 h; for pest or weed control at 1 µg/cm2, 1 µg/cm2: dose 1 μg/cm^2, 48 h; for pest or weed control at 0.04 µg/cm2, 0.04 µg/cm2: dose 0.04 μg/cm^2, 48 h
Description: as §1, §2, §3, §4, §5

[4] = tested on: Rhipicephalus (Boophilus) microplus; test: In vitro injection test with Rhipicephalus (Boophilus) microplus (BOOPMI Inj); conditions: 168 h, laid fertile eggs after 7 days, read-out: acaricidal activity; for pest or weed control at 0.00016 mg: dose 0.16 μg/animal injected; for pest or weed control at 0.0008 mg: dose 0.8 μg/animal injected; for pest or weed control at 32 ng: dose 0.032 μg/animal injected
Description: In Vitro Injection Test with Rhipicephalus (Boophilus) Microplus (BOOPMI Inj)
To produce an appropriate mixture for injection, the test substance was dissolved and diluted in dimethyl sulphoxide to the desired concentration. 1 μl of the test mixture was injected into the abdomen of each of 5 engorged adult female cattle ticks (Rhipicephalus (Boophilus) microplus). The ticks were transferred into petri dishes and maintained in a climate-controlled room [28° C., 85% rel. hum.].
Acaricidal activity against cattle ticks was assessed after 7 days by assessment of laid fertile eggs. […] An acaricidal activity of 100% means that none of the ticks laid eggs or laid eggs were infertile; 0% means that the ticks laid eggs, and all the eggs were fertile.

[5] = tested on: Ctenocephalides felis; test: Ctenocephalides felis in-vitro feeding test with fleas (CTECFE oral); conditions: 48 hours, read-out: insecticidal feeding activity; for pest or weed control at 4 ppm: dose 4 ppm in citrated cattle blood; for pest or weed control at 0.8 ppm: dose 0.8 ppm in citrated cattle blood; for pest or weed control at 0.16 ppm: dose 0.16 ppm in citrated cattle blood
Description: Ctenocephalides felis In-Vitro Feeding Test with Fleas (CTECFE Oral)
To prepare a test blood mixture for feeding fleas, the test substance was dissolved in dimethyl sulphoxide and diluted with citrated cattle blood to the desired concentration.
To assemble the test set-up, about 20 unfed adult male and female cat fleas
(Ctenocephalides felis) were placed in a chamber which was closed at the top and bottom with gauze. A metal cylinder was sealed at one end with parafilm membrane, placed with the sealed base onto the chamber, and filled with the test blood mixture, which could be imbibed by the fleas through the parafilm membrane. The assembled test set-up was maintained at about 37° C. After 48 hours, the insecticidal feeding activity against fleas was determined. 100% means that all of the fleas were killed; 0% means that none of the fleas was killed.

[6] = tested on: Dermacentor variabilis; test: In vitro contact test with adult hard ticks (Dermacentor variabilis); conditions: read-out: acaricidal activity; for pest or weed control at 1 µg/cm2, 1 µg/cm2: dose 1 μg/cm^2, 48 h; for pest or weed control at 0.2 µg/cm2, 0.2 µg/cm2: dose 0.2 μg/cm^2, 48 h
Description: as §1, §2, §3, §4, §5

Compound | pest or weed control at 0.2 µg/cm2, 0.2 µg/cm2 [1] [%] | pest or weed control at 1 µg/cm2, 1 µg/cm2 [1] [%] | pest or weed control at 0.2 µg/cm2, 0.2 µg/cm2 [2] [%] | pest or weed control at 1 µg/cm2, 1 µg/cm2 [2] [%] | pest or weed control at 0.2 µg/cm2, 0.2 µg/cm2 [3] [%] | pest or weed control at 1 µg/cm2, 1 µg/cm2 [3] [%] | pest or weed control at 0.00016 mg [4] [%] | pest or weed control at 0.0008 mg [4] [%] | pest or weed control at 4 ppm [5] [%] | pest or weed control at 0.8 ppm [5] [%] | pest or weed control at 1 µg/cm2, 1 µg/cm2 [6] [%] | pest or weed control at 0.16 ppm [5] [%] | pest or weed control at 0.2 µg/cm2, 0.2 µg/cm2 [6] [%] | pest or weed control at 0.04 µg/cm2, 0.04 µg/cm2 [3] [%] | pest or weed control at 0.04 µg/cm2, 0.04 µg/cm2 [1] [%] | pest or weed control at 32 ng [4] [%] | pest or weed control at 0.04 µg/cm2, 0.04 µg/cm2 ([6]; dose 0.04 μg/cm^2, 48 h) [%] | pest or weed control at 6.4 ng ([4]; dose 0.0064 μg/animal injected) [%] | pest or weed control at 0.0064 ppm ([5]; dose 0.0064 ppm in citrated cattle blood) [%] | pest or weed control at 0.032 ppm ([5]; dose 0.032 ppm in citrated cattle blood) [%]
N#Cc1ccc(C(=O)Nc2cccc(C(=O)Nc3c(Br)cc(C(F)(C(F)(F)F)C(F)(F)F)cc3C(F)(F)F)c2)c(F)c1 [Compound 15] | 95 | 95 | 90 | 90 | 90 | 90 | 100 | 100 | 95 |  |  |  |  |  |  |  |  |  |  | 
N#Cc1ccc(C(=O)Nc2cccc(C(=O)Nc3c(I)cc(C(F)(C(F)(F)F)C(F)(F)F)cc3C(F)(F)F)c2)cc1 [Compound 19] | 95 | 95 |  | 90 | 90 | 90 | 100 | 100 | 95 | 95 |  |  |  |  |  |  |  |  |  | 
O=C(Nc1c(I)cc(C(F)(C(F)(F)F)C(F)(F)F)cc1C(F)(F)F)c1cccc(NC(=O)c2ccc([N+](=O)[O-])cc2Cl)c1 [Compound 39] |  | 95 | 90 | 90 |  | 90 | 100 | 100 | 95 | 95 |  |  |  |  |  |  |  |  |  | 
O=C(Nc1c(I)cc(C(F)(C(F)(F)F)C(F)(F)F)cc1C(F)(F)F)c1cccc(NC(=O)c2cc(F)c(F)cc2Cl)c1 [Compound 38] | 95 | 95 | 90 | 90 |  |  | 100 | 100 | 95 | 95 | 90 | 95 |  |  |  |  |  |  |  | 
O=C(Nc1cccc(C(=O)Nc2c(I)cc(C(F)(C(F)(F)F)C(F)(F)F)cc2C(F)(F)F)c1F)c1ccc(Cl)cc1Cl [Compound 33] | 95 | 95 | 90 | 90 |  |  | 100 | 100 | 95 | 95 | 90 | 95 | 90 |  |  |  |  |  |  | 
N#Cc1ccc(C(=O)Nc2cccc(C(=O)Nc3c(Br)cc(C(F)(C(F)(F)F)C(F)(F)F)cc3C(F)(F)F)c2)cc1 [Compound 3] | 95 | 95 |  | 90 | 90 | 90 |  | 100 | 95 |  |  |  |  |  |  |  |  |  |  | 
O=C(Nc1cccc(C(=O)Nc2c(Br)cc(C(F)(C(F)(F)F)C(F)(F)F)cc2OC(F)(F)F)c1)c1ccc([N+](=O)[O-])cc1 [Compound 11] | 95 | 95 | 90 | 90 | 90 | 90 | 100 | 100 | 95 | 95 |  | 95 |  | 90 |  |  |  |  |  | 
CN(C(=O)c1ccc(F)nc1)c1cccc(C(=O)Nc2c(Br)cc(C(F)(C(F)(F)F)C(F)(F)F)cc2C(F)(F)F)c1F [Compound 21] | 95 | 95 | 90 | 90 | 90 | 90 | 100 | 100 | 95 | 95 | 90 |  | 90 | 90 | 95 | 100 |  |  |  | 
CN(C(=O)c1ccc(C#N)cc1)c1cccc(C(=O)Nc2c(I)cc(C(F)(C(F)(F)F)C(F)(F)C(F)(F)F)cc2C(F)(F)F)c1F (centres unmarked) [Compound 23] | 95 | 95 |  | 90 |  | 90 | 100 | 100 | 95 | 95 | 90 | 95 | 90 |  | 95 | 100 | 90 | 100 | 95 | 95
